{
  "source": "patent US20040191287A1",
  "about": "“Fumigation process for stored food grains” (priority 2003, published 2004)",
  "origin": "cited, not measured here",
  "details": "cited from earlier work",
  "data": [
    {"smiles": "C=CCOC(C)=O", "note": "[allyl acetate]", "values": [
      {"measurement": "Vapour pressure at 27° C. (mm Hg)", "setting": "27° C.", "result": 6, "unit": "mm Hg"},
      {"measurement": "Solubility in water", "result": "Insoluble"}
    ]}
  ]
}
